From US8697708B2, “Azabenzothiazole compounds, compositions and methods of use” (F. Hoffmann-La Roche AG, priority 2010, dated 2014)
Structures can show the parent of a compound that is named as a salt.

Target: TYK2 (Homo sapiens (Human), UniProt P29597)
Experiment: JAK1, JAK2 and TYK2 Inhibition Assay Protocol (Example A): TYK2 kinase domain, Caliper LabChip peptide phosphorylation
Format: biochemical
Conditions: isolated TYK2 kinase domain, 1 nM enzyme, 25 μM ATP, Morrison tight binding model
Experimental: The activity of the isolated JAK1, JAK2 or TYK2 kinase domain was measured by monitoring phosphorylation of a peptide derived from JAK3 (Val-Ala-Leu-Val-Asp-Gly-Tyr-Phe-Arg-Leu-Thr-Thr) fluorescently labeled on the N-terminus with 5-carboxyfluorescein using the Caliper LabChip technology (Caliper Life Sciences, Hopkinton, Mass.). […] Reactions were incubated at 22° C. in 384-well polypropylene microtiter plates for 30 minutes and then stopped by addition of 25 μL of an EDTA containing solution (100 mM Hepes pH 7.2, 0.015% Brij-35, 150 mM EDTA), resulting in a final EDTA concentration of 50 mM. After termination of the kinase reaction, the proportion of phosphorylated product was determined as a fraction of total peptide substrate using the Caliper LabChip 3000 according to the manufacturer's specifications. Ki values were then determined using the Morrison tight binding model. Morrison, J. F., Biochim. Biophys. Acta. 185:269-296 (1969); William, J. W. and Morrison, J. F., Meth. Enzymol., 63:437-467 (1979).

Sequence of TYK2 (P29597 897-1176): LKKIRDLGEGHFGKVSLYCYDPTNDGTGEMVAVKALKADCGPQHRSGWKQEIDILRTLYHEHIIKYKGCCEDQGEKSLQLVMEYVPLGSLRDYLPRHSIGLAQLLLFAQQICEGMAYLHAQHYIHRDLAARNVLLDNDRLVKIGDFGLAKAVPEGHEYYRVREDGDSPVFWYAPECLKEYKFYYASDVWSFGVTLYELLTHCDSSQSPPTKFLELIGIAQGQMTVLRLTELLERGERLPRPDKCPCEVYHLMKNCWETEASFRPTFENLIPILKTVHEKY

SMILES | Ki
Cc1cc(Nc2nccc3nc(-c4c(Cl)cc(CO)cc4Cl)sc23)ncn1 [Example 22, {3,5-Dichloro-4-[4-(6-methyl-pyrimidin-4-ylamino)-thiazolo[5,4-c]pyridin-2-yl]-phenyl}-methanol] | 1 nM
Cc1cc(Nc2nccc3nc(-c4c(C#N)cc(C#N)cc4C#N)sc23)nc(C)n1 [Example 227, 2-(4-(2,6-dimethylpyrimidin-4-ylamino)thiazolo[5,4-c]pyridin-2-yl)benzene-1,3,5-tricarbonitrile] | 0.8 nM
N#Cc1cccc(F)c1-c1nc2c(C#N)cnc(Nc3cc(N)ncn3)c2s1 [Example 224, 4-(6-aminopyrimidin-4-ylamino)-2-(2-cyano-6-fluorophenyl) thiazolo[5,4-c] pyridine-7-carbonitrile] | 0.3 nM
Cc1cc(Nc2nccc3nc(-c4c(Cl)cc(C5CC5)cc4Cl)sc23)ncn1 [Example 138, [2-(2,6-Dichloro-4-cyclopropylphenyl)thiazolo[5,4-c]pyridin-4-yl]-(6-methylpyrimidin-4-yl)-amine] | 4.1 nM
N#Cc1cnc(Nc2cc(N)ncn2)c2sc(-c3c(F)cccc3Cl)nc12 [Example 223, 4-(6-aminopyrimidin-4-ylamino)-2-(2-chloro-6-fluorophenyl) thiazolo[5,4-c] pyridine-7-carbonitrile] | 0.4 nM
CCc1cc(Nc2nccc3nc(-c4c(Cl)cc(C(N)=O)cc4Cl)sc23)ncn1 [Example 129, 3,5-Dichloro-4-[4-(6-ethylpyrimidin-4-ylamino)thiazolo[5,4-c]pyridin-2-yl]-benzamide] | 1.6 nM
O=C(CO)Nc1nccc2nc(-c3c(Cl)cccc3Cl)sc12 [Example 10, N-(2-(2,6-Dichlorophenyl)thiazolo[5,4-c]pyridin-4-yl)-2-hydroxyacetamide] | 23 nM
O=C(Nc1nccc2nc(-c3c(F)cccc3Cl)sc12)NC1CC1 [Example 16, 1-(2-(2-Chloro-6-fluorophenyl)thiazolo[5,4-c]pyridin-4-yl)-3-cyclopropylurea] | 1.4 nM
Cc1cc(Nc2nccc3nc(-c4ccccc4Cl)sc23)nc(C)n1 [Example 56, 2-(2-chlorophenyl)-N-(2,6-dimethylpyrimidin-4-yl)thiazolo[5,4-c]pyridin-4-amine] | 8.6 nM
OCc1ccnc(Nc2nccc3nc(-c4c(Cl)cccc4Cl)sc23)c1 [Example 18, (2-(2-(2,6-dichlorophenyl)thiazolo[5,4-c]pyridin-4-ylamino)pyridin-4-yl)methanol] | 0.3 nM
Cc1nc(CO)cc(Nc2nccc3nc(-c4c(Cl)cccc4C#N)sc23)n1 [Example 236, 3-Chloro-2-[4-(6-hydroxy-methyl-2-methyl-pyrimidin-4-ylamino)-thiazolo[5,4-c]pyridin-2-yl]-benzonitrile hydrochloride salt] | 0.5 nM
N#Cc1cc(Cl)c(-c2nc3c(F)cnc(NC(=O)C4CC4)c3s2)c(Cl)c1 [Example 213, Cyclopropane-carboxylic acid [2-(2,6-dichloro-4-cyano-phenyl)-7-fluorothiazolo[5,4-c]pyridin-4-yl]-amide] | 1.5 nM
O=C(Nc1ncnc2nc(-c3c(Cl)cccc3Cl)sc12)C1CC1 [Example 24, N-(2-(2,6-dichlorophenyl)thiazolo[4,5-d]pyrimidin-7-yl)cyclopropanecarboxamide] | 6.2 nM
O=C(Nc1nccc2nc(-c3c(Cl)cccc3Cl)sc12)C1CC1 [Example 2, N-(2-(2,6-Dichlorophenyl)thiazolo[5,4-c]pyridin-4-yl)cyclopropanecarboxamide] | 0.5 nM
